# Assay results as given in US20040006103A1, “Use of chloroquine, hydroxychloroquine and 4 amino-quinolinic derivatives to obtain a drug for the anti retroviral therapy, active towards HIV sensitive strains and towards HIV strains which are resistant to both nucleosidic and non-nucleosidic reverse transcriptase inhibitors and to proteases …” (VALPHARMA S.A., priority 2002, published 2004).
# Like-named read-outs stand apart in the source and are kept apart here.
# Assays:
# [1] = system: HIV clinical isolated, characterised by mutations in the RT gene inducing geno-phenotypic resistance to AZT; experiment: p24 production susceptibility test (ACTG protocol), Table 1; assay type: cell-based, HIV-1; conditions: for EC50: Human immunodeficiency virus 1, PBMC; for S.I. HCQ: I.C.50/E.C.50; for Fen. HCQ (fold): ratio to HIV-IIIB
# Source text: (§1) For the phenotype of the nucleosidic, non-nucleosidic and proteases inhibitors was utilised a method which consider the use of human PBMC and the protocol standardised by the AIDS Clinical Trials Group, after verifying the genotype by sequence analysis.
# (§2) In order to assay in vitro the susceptibility to chloroquine and hydroxychloroquine of the viral strains, it was used the protocol of the ACTG which is characterised by the measure, of the production of antigen p24 in strongly infected cells.
# (§3) The susceptibility of the viral strains to chemotherapics was determined in cell cultures, prepared in 96 wells microplates, using, for the infection, 0.1 MOI.
# (§4) The supernatant of the infected cultures (either in absence or in presence of different concentrations of chemotherapic) were tested for the production of p24 after 7 days, using an ELISA test which is commercially available.
# (§5) The concentrations of chloroquine and hydroxychloroquine tested ranged from 0.5 to 15 uM. At the same time non-infected cells were incubated with concentrations of chloroquine and hydroxychloroquine ranging from 0 to 50 uM to evaluate the toxicity of the compound.
# (§6) After 4 day from the infection, half the cellular medium was replaced with a medium containing the corresponding dilution of chloroquine and hydroxychloroquine. The percentage of inhibition of the HIV replication, induced by chloroquine and hydroxychloroquine, was determined, after 7 day from the infection, comparing the levels of p24 of this cultures and that of the control, infected and not treated with chloroquine and hydroxychloroquine.
# (§7) Therefore, the E.C.50 of chloroquine and hydroxychloroquine expresses the concentration of chemotherapic that inhibits the 50% of production of p24 and the values were calculated using linear and non linear regression analysis (the significativity for the non linear regression was R^2>0.95).
# (§8) In the same experimental conditions and in the same day, but with similar concentrations of chloroquine and hydroxychloroquine, it was evaluated the vitality of the infect cell cultures, and this was expressed as I.C.50.
# (§9) I.C.50 (Inhibitory Concentration) indicates the concentration of the chemotherapic agent inhibiting the vitality of the cell cultures at a rate of 50%, when there is not infection.
# [2] = system: HIV-1 clinical isolated, characterised by mutations in the RT gene inducing geno-phenotypic resistance to ABC; experiment: p24 production susceptibility test (ACTG protocol), Table 5; assay type: cell-based; conditions: for EC50: Human immunodeficiency virus 1, PBMC, read-out: E.C.50 HCQ; for S.I. HCQ / Fen. HCQ (fold): PBMC; for S.I. HCQ: I.C.50/E.C.50; for Fen. HCQ (fold): ratio to HIV-IIIB
# Source text: as §1, §2, §3, §4, §5, §6, §7, §8, §9
# [3] = system: HIV-1 strains geno-phenotypically resistant to NVP; experiment: p24 production susceptibility test, Table 6, MT-2 cells; assay type: cell-based; conditions: for EC50: Human immunodeficiency virus 1, MT2, MT-2, read-out: E.C.50 HCQ; for S.I. HCQ / Fen. HCQ (fold): MT-2; for S.I. HCQ: I.C.50/E.C.50; for Fen. HCQ (fold): ratio to HIV-IIIB
# Source text: as §1, §2, §3, §4, §5, §6, §7, §8, §9
# [4] = system: HIV-1 strains geno-phenotypically resistant to EFV; experiment: p24 production susceptibility test, Table 7, MT-2 cells; assay type: cell-based; conditions: for EC50: Human immunodeficiency virus 1, MT2, MT-2, read-out: E.C.50 HCQ; for S.I. HCQ / Fen. HCQ (fold): MT-2; for S.I. HCQ: I.C.50/E.C.50; for Fen. HCQ (fold): ratio to HIV-IIIB
# Source text: as §1, §2, §3, §4, §5, §6, §7, §8, §9
# [5] = system: HIV-1 clinical isolated, characterised by mutations on the protease gene inducing geno-phenotypic resistance to NFV; experiment: p24 production susceptibility test (ACTG protocol), Table 10, PBMC; assay type: cell-based; conditions: for S.I. HCQ: I.C.50/E.C.50; for Fen. HCQ (fold): ratio to HIV-IIIB; for EC50: Human immunodeficiency virus 1, PBMC, read-out: E.C.50 HCQ
# Source text: as §1, §2, §3, §4, §5, §6, §7, §8, §9
# [6] = system: HIV-1 clinical isolated, characterised by mutations on the protease gene inducing geno-phenotypic resistance to NFV; experiment: p24 production susceptibility test, Table 10, H-9 cells; assay type: cell-based; conditions: for S.I. HCQ / Fen. HCQ (fold): H-9; for S.I. HCQ: I.C.50/E.C.50; for Fen. HCQ (fold): ratio to HIV-IIIB; for EC50: Human immunodeficiency virus 1, H9, H-9, read-out: E.C.50 HCQ
# Source text: as §1, §2, §3, §4, §5, §6, §7, §8, §9
# [7] = system: viruses resistant to both reverse transcriptase and protease inhibitors; experiment: p24 production susceptibility test, summary for resistant viruses; assay type: cell-based, HIV-1; conditions: Human immunodeficiency virus 1, range
# Description: as §2, §3
# The supernatant of the infected cultures (either in absence or in presence of different concentrations of chemotherapic) were tested for the production of p24 after 7 days, using an ELISA test which is commercially available. […]
# as §6, §7
# [8] = PBMC, Gen. D67N K70R T215F K219Q
# [9] = PBMC, Gen. D 67 Ns K 70N T215F K219Q
# [10] = PBMC, Gen. M41I M184V L210W R221K T215Y
# [11] = PBMC, Gen. M41L D67N K70RM 184V T215F
# [12] = PBMC, Gen. M41LD 76N K70R T215Y
# [13] = Gen. K65R S68G F77L Y115F Q151M M184V
# [14] = Gen. M41L D67N M184V L210W T215Y
smiles,measurement,setting,value
"CCN(CCO)CCCC(C)Nc1ccnc2cc(Cl)ccc12 (stereo not shown) [HCQ, hydroxychloroquine]",EC50,"[1]; PBMC, Gen. D67N K70R T215F K219Q, read-out: E:C.50 HCQ",2 µM
same,EC50,"[1]; PBMC, Gen. D 67 Ns K 70N T215F K219Q, read-out: E:C.50 HCQ",2.5 µM
same,EC50,"[1]; PBMC, Gen. K70R T215F K219Q, read-out: E:C.50 HCQ",2 µM
same,EC50,"[1]; PBMC, Gen. M41I M184V L210W R221K T215Y, read-out: E:C.50 HCQ",1 µM
same,EC50,"[1]; PBMC, Gen. M41I T215Y, read-out: E:C.50 HCQ",2.5 µM
same,EC50,"[1]; PBMC, Gen. M41L D67N K70RM 184V T215F, read-out: E:C.50 HCQ",2.5 µM
same,EC50,"[1]; read-out: E:C.50 HCQ (uM), PBMC, Gen. M41LD 76N K70R T215Y",2.8 µM
same,S.I. HCQ,[1]; [8],4
same,Fen. HCQ (fold),[1]; [8],1.1X fold
same,S.I. HCQ,[1]; [9],3.6
same,Fen. HCQ (fold),[1]; [9],1.6X fold
same,S.I. HCQ,"[1]; PBMC, Gen. K70R T215F K219Q",5
same,Fen. HCQ (fold),"[1]; PBMC, Gen. K70R T215F K219Q",1.1X fold
same,S.I. HCQ,[1]; [10],7
same,Fen. HCQ (fold),[1]; [10],0.5X fold
same,S.I. HCQ,"[1]; PBMC, Gen. M41I T215Y",4.5
same,Fen. HCQ (fold),"[1]; PBMC, Gen. M41I T215Y",1.3X fold
same,S.I. HCQ,[1]; [11],3.6
same,Fen. HCQ (fold),[1]; [11],1.3X fold
same,S.I. HCQ,[1]; [12],3.4
same,Fen. HCQ (fold),[1]; [12],1.5X fold
same,EC50,[2]; Gen. K65R L74V M184V,1500 nM
same,EC50,[2]; [13],2200 nM
same,EC50,[2]; Gen. L74V M184F,2200 nM
same,EC50,[2]; Gen. L74V Y115F M184V,2500 nM
same,EC50,[2]; [14],1800 nM
same,S.I. HCQ,[2]; Gen. K65R L74V M184V,6
same,Fen. HCQ (fold),[2]; Gen. K65R L74V M184V,1X fold
same,S.I. HCQ,[2]; [13],4
same,Fen. HCQ (fold),[2]; [13],1.4X fold
same,S.I. HCQ,[2]; Gen. L74V M184F,4
same,Fen. HCQ (fold),[2]; Gen. L74V M184F,1.4X fold
same,S.I. HCQ,[2]; Gen. L74V Y115F M184V,3.6
same,Fen. HCQ (fold),[2]; Gen. L74V Y115F M184V,1.3X fold
same,S.I. HCQ,[2]; [14],5.5
same,Fen. HCQ (fold),[2]; [14],1.2X fold
same,EC50,[3]; Gen. G190E,3500 nM
same,EC50,[3]; Gen. K103N,2800 nM
same,EC50,[3]; Gen. V106A,3200 nM
same,EC50,[3]; Gen. Y181C,3200 nM
same,S.I. HCQ,[3]; Gen. G190E,6
same,Fen. HCQ (fold),[3]; Gen. G190E,1.9X fold
same,S.I. HCQ,[3]; Gen. K103N,7.8
same,Fen. HCQ (fold),[3]; Gen. K103N,1.5X fold
same,S.I. HCQ,[3]; Gen. V106A,6.2
same,Fen. HCQ (fold),[3]; Gen. V106A,1.7X fold
same,S.I. HCQ,[3]; Gen. Y181C,6.1
same,Fen. HCQ (fold),[3]; Gen. Y181C,1.7X fold
same,EC50,[4]; Gen. K101D K103N,2500 nM
same,EC50,[4]; Gen. K103N V108D,2800 nM
same,EC50,[4]; Gen. K103N Y181C,2500 nM
same,EC50,[4]; Gen. K103N,2800 nM
same,EC50,[4]; Gen. L100I K103N,3200 nM
same,EC50,[4]; Gen. Y181C,1500 nM
same,S.I. HCQ,[4]; Gen. K101D K103N,8.8
same,Fen. HCQ (fold),[4]; Gen. K101D K103N,1.6X fold
same,S.I. HCQ,[4]; Gen. K103N V108D,7.8
same,Fen. HCQ (fold),[4]; Gen. K103N V108D,1.8X fold
same,S.I. HCQ,[4]; Gen. K103N Y181C,8.5
same,Fen. HCQ (fold),[4]; Gen. K103N Y181C,1.6X fold
same,S.I. HCQ,[4]; Gen. K103N,8.7
same,Fen. HCQ (fold),[4]; Gen. K103N,1.8X fold
same,S.I. HCQ,[4]; Gen. L100I K103N,6
same,Fen. HCQ (fold),[4]; Gen. L100I K103N,2.1X fold
same,S.I. HCQ,[4]; Gen. Y181C,8.7
same,Fen. HCQ (fold),[4]; Gen. Y181C,1X fold
same,S.I. HCQ,[5]; Gen. D30N A71V,4
same,Fen. HCQ (fold),[5]; Gen. D30N A71V,1.2X fold
same,S.I. HCQ,[5]; Gen. D30N M46V A71V,5.5
same,Fen. HCQ (fold),[5]; Gen. D30N M46V A71V,1X fold
same,S.I. HCQ,[5]; Gen. G48V V92A,3.3
same,Fen. HCQ (fold),[5]; Gen. G48V V92A,1.6X fold
same,S.I. HCQ,[5]; Gen. V82F L90M,3.6
same,Fen. HCQ (fold),[5]; Gen. V82F L90M,1.3X fold
same,EC50,[5]; Gen. D30N A71V,2200 nM
same,EC50,[5]; Gen. D30N M46V A71V,1800 nM
same,EC50,[5]; Gen. G48V V92A,3000 nM
same,EC50,[5]; Gen. V82F L90M,2500 nM
same,S.I. HCQ,[6]; Gen. D30N,4.4
same,Fen. HCQ (fold),[6]; Gen. D30N,1.2X fold
same,S.I. HCQ,[6]; Gen. V82A,5.5
same,Fen. HCQ (fold),[6]; Gen. V82A,1.3X fold
same,EC50,[6]; Gen. D30N,2200 nM
same,EC50,[6]; Gen. V82A,2500 nM
same,EC50,[7],1500 to 3500 nM
